PubChem BioAssay AID248 (DTP/NCI, 2004)
Where “and” joins values, the source holds several entries; their conditions need not be identical. Identical values can stand only once. Toxic doses and inconclusive results are not listed.

System: L1210 leukemia ip in BDF1 mice, survival T/C
Test: NCI In Vivo Anticancer Drug Screen. Data for tumor model L1210 Leukemia (intraperitoneal) in B6D2F1 (BDF1) mice
Conditions: endpoint: mean survival time, higher = longer survival
Procedure, shortened: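 In this screen, tumor-bearing mice given compound are compared to those given vehicle, and their survival values are reported as a treated-to-control quotient.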

[1] = dose: 50.0 mg/kg/injection, schedule: Q01DX001 (ip), vehicle: carboxymethylcellulose (CMC)
[2] = dose: 100.0 mg/kg/injection, schedule: Q01DX001 (ip), vehicle: carboxymethylcellulose (CMC)
[3] = dose: 100.0 mg/kg/injection, schedule: Q01DX009 (ip), vehicle: Klucel (hydroxypropylcellulose) (HPC)
[4] = dose: 100.0 mg/kg/injection, schedule: Q04DX003 (ip), vehicle: Klucel (hydroxypropylcellulose) (HPC)
[5] = dose: 200.0 mg/kg/injection, schedule: Q01DX001 (ip), vehicle: carboxymethylcellulose (CMC)
[6] = dose: 200.0 mg/kg/injection, schedule: Q01DX009 (ip), vehicle: Klucel (hydroxypropylcellulose) (HPC)
[7] = dose: 200.0 mg/kg/injection, schedule: Q04DX003 (ip), vehicle: Klucel (hydroxypropylcellulose) (HPC)
[8] = dose: 400.0 mg/kg/injection, schedule: Q01DX001 (ip), vehicle: carboxymethylcellulose (CMC)
[9] = dose: 400.0 mg/kg/injection, schedule: Q01DX009 (ip), vehicle: Klucel (hydroxypropylcellulose) (HPC)
[10] = dose: 400.0 mg/kg/injection, schedule: Q04DX003 (ip), vehicle: Klucel (hydroxypropylcellulose) (HPC)
[11] = dose: 100.0 mg/kg/injection, schedule: Q01DX001 (ip), vehicle: Klucel (hydroxypropylcellulose) (HPC)
[12] = dose: 200.0 mg/kg/injection, schedule: Q01DX001 (ip), vehicle: Klucel (hydroxypropylcellulose) (HPC)
[13] = dose: 100.0 mg/kg/injection, schedule: Q01DX001 (ip), vehicle: other
[14] = dose: 200.0 mg/kg/injection, schedule: Q01DX001 (ip), vehicle: other
[15] = dose: 400.0 mg/kg/injection, schedule: Q01DX001 (ip), vehicle: other
[16] = dose: 75.0 mg/kg/injection, schedule: Q01DX001 (ip), vehicle: saline
[17] = dose: 100.0 mg/kg/injection, schedule: Q01DX001 (ip), vehicle: saline
[18] = dose: 200.0 mg/kg/injection, schedule: Q01DX001 (ip), vehicle: saline
[19] = dose: 400.0 mg/kg/injection, schedule: Q04DX003 (ip), vehicle: saline with Tween-80

For `NC(N)=N/N=C(/c1ccccc1)c1ccccc1F`, the T/C (dose: 15.0 mg/kg/injection, schedule: Q01DX Z (ip), vehicle: saline) was 111 % of control, the T/C (dose: 30.0 mg/kg/injection, schedule: Q01DX Z (ip), vehicle: saline) was 100 % of control and the T/C (dose: 60.0 mg/kg/injection, schedule: Q01DX Z (ip), vehicle: saline) was 108 % of control. For the same molecule, the T/C (dose: 120.0 mg/kg/injection, schedule: Q01DX Z (ip), vehicle: saline) was 103 % of control, the T/C (dose: 120.0 mg/kg/injection, schedule: Q01DX Z (oral), vehicle: saline) was 105 % of control and the T/C (dose: 240.0 mg/kg/injection, schedule: Q01DX Z (ip), vehicle: saline) was 95 % of control. For the same molecule, the T/C (dose: 240.0 mg/kg/injection, schedule: Q01DX Z (oral), vehicle: saline) was 105 % of control, the T/C (dose: 480.0 mg/kg/injection, schedule: Q01DX Z (ip), vehicle: saline) was 96 % of control and the T/C (dose: 480.0 mg/kg/injection, schedule: Q01DX Z (oral), vehicle: saline) was 105 % of control.

For `O=C(OC1COC(Br)C(OC(=O)c2ccccc2)C1OC(=O)c1ccccc1)c1ccccc1` (configuration not stated), the T/C [1] was 90 % of control, the T/C [2] was 95 % of control and 97 % of control and the T/C [3] was 97 % of control. The T/C [4] was 106 % of control, the T/C [5] was 93 % of control and 94 % of control and the T/C [6] was 103 % of control. The T/C [7] was 104 % of control, the T/C [8] was 98 % of control and 94 % of control and the T/C [9] was 98 % of control. For the same molecule, the T/C [10] was 98 % of control.

For `COc1cc(C(=O)CC(O)(C(F)(F)F)C(F)(F)F)cc(OC)c1OC`, the T/C (dose: 50.0 mg/kg/injection, schedule: Q01DX009 (ip), vehicle: Klucel (hydroxypropylcellulose) (HPC)) was 95 % of control, the T/C [11] was 86 % of control and the T/C [3] was 97 % of control. For the same molecule, the T/C [12] was 100 % of control and the T/C [6] was 98 % of control.

In the case of `Cc1[nH]c2c(C)ccc(C)c2c(=O)c1Br`, the T/C [13] is reported as 91 % of control, the T/C [14] is reported as 94 % of control and the T/C [15] is reported as 86 % of control.

`CCOC(=O)NC1=NCC(C)(C)S1` was tested, and the T/C [16] was 97 % of control.

For `c1ccc(CC2(Cc3ccccc3)N=C(c3ccccc3)C(c3ccccc3)=N2)cc1`, the T/C [3] was 103 % of control, the T/C [4] was 102 % of control and the T/C [6] was 97 % of control. The T/C [7] was 103 % of control, the T/C [9] was 98 % of control and the T/C [10] was 97 % of control.

With `C=COC(=O)N1CCCC1C(=O)O` (configuration not stated) the T/C [17] was 92 % of control, the T/C [18] was 94 % of control and the T/C (dose: 400.0 mg/kg/injection, schedule: Q01DX001 (ip), vehicle: saline) was 90 % of control.

With `O=S(=O)(NO)c1ccc(Cl)cc1` the T/C (dose: 50.0 mg/kg/injection, schedule: Q01DX009 (ip), vehicle: saline sonified) was 98 % of control, the T/C (dose: 100.0 mg/kg/injection, schedule: Q01DX009 (ip), vehicle: saline sonified) was 91 % of control and the T/C (dose: 100.0 mg/kg/injection, schedule: Q04DX003 (ip), vehicle: saline) was 98 % of control. For the same molecule, the T/C (dose: 200.0 mg/kg/injection, schedule: Q01DX009 (ip), vehicle: saline sonified) was 95 % of control and the T/C (dose: 200.0 mg/kg/injection, schedule: Q04DX003 (ip), vehicle: saline) was 94 % of control.

In the case of `Cc1ccc(S(=O)(=O)N/N=C/C(=O)O)cc1`, the T/C (dose: 10.0 mg/kg/injection, schedule: Q01DX009 (ip), vehicle: other) is reported as 116 % of control, the T/C (dose: 15.0 mg/kg/injection, schedule: Q01DX009 (ip), vehicle: other) is reported as 118 % of control and the T/C (dose: 27.0 mg/kg/injection, schedule: Q01DX009 (ip), vehicle: saline) is reported as 158 % of control. The T/C (dose: 33.0 mg/kg/injection, schedule: Q01DX009 (ip), vehicle: other) was 166 % of control, the T/C (dose: 40.0 mg/kg/injection, schedule: Q01DX009 (ip), vehicle: saline) was 153 % of control and the T/C (dose: 50.0 mg/kg/injection, schedule: Q01DX009 (ip), vehicle: water) was 108 % of control. For the same molecule, the T/C [16] was 119 % of control, the T/C (dose: 90.0 mg/kg/injection, schedule: Q01DX009 (ip), vehicle: saline) was 164 % of control and the T/C (dose: 100.0 mg/kg/injection, schedule: Q01DX009 (ip), vehicle: saline with Tween-80) was 120 % of control. For the same molecule, the T/C (dose: 100.0 mg/kg/injection, schedule: Q01DX009 (ip), vehicle: water) was 92 % of control, the T/C (dose: 112.0 mg/kg/injection, schedule: Q01DX009 (ip), vehicle: other) was 97 % of control and the T/C (dose: 144.0 mg/kg/injection, schedule: Q04DX003 (ip), vehicle: saline with Tween-80) was 97 % of control. The T/C (dose: 150.0 mg/kg/injection, schedule: Q01DX009 (ip), vehicle: saline with Tween-80) was 116 % of control, the T/C (dose: 200.0 mg/kg/injection, schedule: Q01DX009 (ip), vehicle: saline with Tween-80) was 112 % of control and the T/C (dose: 240.0 mg/kg/injection, schedule: Q04DX003 (ip), vehicle: saline with Tween-80) was 107 % of control. For the same molecule, the T/C [19] was 108 % of control and the T/C (dose: 500.0 mg/kg/injection, schedule: Q01DX009 (ip), vehicle: saline with Tween-80) was 117 % of control.

`COc1ccccc1/C(=C/c1ccc([N+](=O)[O-])cc1)C(=O)O` was tested, and the T/C [11] was 100 % of control, the T/C [3] was 97 % of control and 100 % of control and the T/C (dose: 100.0 mg/kg/injection, schedule: Q04DX002 (ip), vehicle: Klucel (hydroxypropylcellulose) (HPC)) was 101 % of control and 107 % of control. For the same molecule, the T/C [4] was 97 % of control, the T/C [12] was 94 % of control and the T/C [6] was 95 % of control and 103 % of control. For the same molecule, the T/C (dose: 200.0 mg/kg/injection, schedule: Q04DX002 (ip), vehicle: Klucel (hydroxypropylcellulose) (HPC)) was 102 % of control and 103 % of control, the T/C [7] was 100 % of control and the T/C (dose: 400.0 mg/kg/injection, schedule: Q01DX001 (ip), vehicle: Klucel (hydroxypropylcellulose) (HPC)) was 94 % of control. For the same molecule, the T/C [9] was 100 % of control, the T/C (dose: 400.0 mg/kg/injection, schedule: Q04DX002 (ip), vehicle: Klucel (hydroxypropylcellulose) (HPC)) was 97 % of control and 104 % of control and the T/C [10] was 101 % of control.

`c1cc(OCC2CO2)ccc1OCC1CO1` (configuration not stated) was tested, and the T/C [13] was 115 % of control, the T/C [14] was 124 % of control and the T/C [15] was 121 % of control.

With `CC[Si](CC)(CC)N1CC1` the T/C (dose: 12.5 mg/kg/injection, schedule: Q01DX001 (ip), vehicle: carboxymethylcellulose (CMC)) was 106 % of control, the T/C (dose: 25.0 mg/kg/injection, schedule: Q01DX001 (ip), vehicle: carboxymethylcellulose (CMC)) was 92 % of control and the T/C [1] was 92 % of control.

`CC(C)(C)C1COP(=O)(OCc2ccccc2)OC1` (configuration not stated) was tested, and the T/C (dose: 100.0 mg/kg/injection, schedule: Q04DX003 (ip), vehicle: other) was 92 % of control and the T/C (dose: 200.0 mg/kg/injection, schedule: Q04DX003 (ip), vehicle: other) was 91 % of control.

`CCOCCN=Cc1ccccc1O.CCOCCN=Cc1ccccc1O.[Co]` was tested, and the T/C (dose: 50.0 mg/kg/injection, schedule: Q01DX001 (ip), vehicle: saline) was 100 % of control, the T/C [17] was 98 % of control and the T/C [18] was 96 % of control.

`O=C(N/N=C/c1ccc2c(c1)CCC2)c1ccccc1` was tested, and the T/C (dose: 100.0 mg/kg/injection, schedule: Q04DX003 (ip), vehicle: saline with Tween-80) was 92 % of control, the T/C (dose: 200.0 mg/kg/injection, schedule: Q04DX003 (ip), vehicle: saline with Tween-80) was 90 % of control and the T/C [19] was 88 % of control.

In the case of `Cc1ccccc1C(=O)c1ccccc1C(=O)c1ccccc1`, the T/C [1] is reported as 98 % of control, the T/C [2] is reported as 88 % of control and the T/C (dose: 100.0 mg/kg/injection, schedule: Q01DX009 (ip), vehicle: saline) is reported as 97 % of control. The T/C [5] was 93 % of control, the T/C (dose: 200.0 mg/kg/injection, schedule: Q01DX009 (ip), vehicle: saline) was 95 % of control and the T/C [8] was 101 % of control. The T/C (dose: 400.0 mg/kg/injection, schedule: Q01DX009 (ip), vehicle: saline) was 97 % of control.
